Measurements taken from PubChem BioAssay (NCI).
Where “and” joins values, the source holds several entries; their conditions need not be identical. Equal entries are not always repeated.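 The compound was tested at five concentrations on cells cultured in 96-well plates, with a 48-hour exposure period. At the GI50, growth is halved. TGI is the concentration that stops growth completely.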

Experiments:
Assay in all cases: inhibition of tumour cell growth, NCI panel, 48 h
SF-268 CNS = test system: SF-268 CNS
MDA-MB-435 = test system: MDA-MB-435
NCI-H23 lung = test system: NCI-H23 lung
SW-620 colon = test system: SW-620 colon
HT29 colon = test system: HT29 colon
SF-539 CNS = test system: SF-539 CNS
OVCAR-4 ovarian = test system: OVCAR-4 ovarian
SK-MEL-28 melanoma = test system: SK-MEL-28 melanoma
NCI/ADR-RES ovarian = test system: NCI/ADR-RES ovarian
NCI-H226 lung = test system: NCI-H226 lung
BT-549 breast = test system: BT-549 breast
HOP-62 NSCLC = test system: HOP-62 NSCLC
COLO 205 colon = test system: COLO 205 colon
M14 melanoma = test system: M14 melanoma
LOX IMVI melanoma = test system: LOX IMVI melanoma
HCT-116 colon = test system: HCT-116 colon
SK-MEL-5 melanoma = test system: SK-MEL-5 melanoma
MCF7 breast = test system: MCF7 breast
EKVX NSCLC = test system: EKVX NSCLC
TK-10 renal = test system: TK-10 renal
SNB-75 CNS = test system: SNB-75 CNS
SN12C renal = test system: SN12C renal
IGROV1 ovarian = test system: IGROV1 ovarian
PC-3 prostate = test system: PC-3 prostate
RPMI-8226 leukemia = test system: RPMI-8226 leukemia
ACHN renal = test system: ACHN renal
A498 renal = test system: A498 renal
UACC-257 melanoma = test system: UACC-257 melanoma
UO-31 renal = test system: UO-31 renal

C=CC(=O)Nc1cc2c(Nc3ccc(F)c(Cl)c3)ncnc2cc1OCCCN1CCOCC1
GI50 (SF-268 CNS): 1770 nM and 3470 nM
TGI (SF-268 CNS): 5.13 µM and > 10 µM
GI50 (MDA-MB-435): 2.67 µM and 4.1 µM
TGI (MDA-MB-435): 12 µM and > 10 µM
GI50 (NCI-H23 lung): 1820 nM and 2390 nM
TGI (NCI-H23 lung): 3.94 µM and > 6.12 µM
GI50 (SW-620 colon): 1810 nM and 2620 nM
TGI (SW-620 colon): 3.59 µM and > 6.13 µM
GI50 (HT29 colon): 1640 nM and 2260 nM
TGI (HT29 colon): 3.48 µM and > 8.38 µM
GI50 (SF-539 CNS): 1580 nM and 3890 nM
TGI (SF-539 CNS): 3.5 µM and > 10 µM
GI50 (OVCAR-4 ovarian): 2610 nM and 2710 nM
TGI (OVCAR-4 ovarian): 9.73 µM and > 10 µM
GI50 (SK-MEL-28 melanoma): 1670 nM and > 6850 nM
TGI (SK-MEL-28 melanoma): 3.21 µM and > 10 µM
GI50 (NCI/ADR-RES ovarian): 1710 nM and 2360 nM
TGI (NCI/ADR-RES ovarian): 8.79 µM and > 10 µM
GI50 (NCI-H226 lung): 2080 nM and > 6110 nM
TGI (NCI-H226 lung): 5.59 µM and > 10 µM
GI50 (BT-549 breast): 2040 nM and 2570 nM
TGI (BT-549 breast): 5.7 µM and > 7.88 µM
GI50 (HOP-62 NSCLC): 3.27 µM and > 5.63 µM
TGI (HOP-62 NSCLC): 13.9 µM and > 10 µM
GI50 (COLO 205 colon): 2.42 µM and 4.59 µM
TGI (COLO 205 colon): 7.32 µM and > 10 µM
GI50 (M14 melanoma): 1.7 µM and 4.48 µM
TGI (M14 melanoma): 3.52 µM and > 10 µM
GI50 (LOX IMVI melanoma): 1290 nM and 1690 nM
TGI (LOX IMVI melanoma): 2.7 µM and 3.32 µM
GI50 (HCT-116 colon): 1580 nM and 2350 nM
TGI (HCT-116 colon): 3 µM and > 5.9 µM
GI50 (SK-MEL-5 melanoma): 3.3 µM and > 7.32 µM
TGI (SK-MEL-5 melanoma): 13.3 µM and > 10 µM
GI50 (MCF7 breast): 1320 nM and 2520 nM
TGI (MCF7 breast): 7.01 µM and > 10 µM
GI50 (EKVX NSCLC): 26.2 nM and 36.7 nM
TGI (EKVX NSCLC): 12.4 µM and > 10 µM
GI50 (TK-10 renal): < 10 nM and 2.17 nM
TGI (TK-10 renal): 9.6 µM and 6.78 µM
GI50 (SNB-75 CNS): 470 nM and 1060 nM
TGI (SNB-75 CNS): 4.54 µM and > 7.95 µM
GI50 (SN12C renal): 805 nM and 1590 nM
TGI (SN12C renal): 6.8 µM and > 10 µM
GI50 (IGROV1 ovarian): 993 nM and 284 nM
TGI (IGROV1 ovarian): 3.26 µM and 2.88 µM
GI50 (PC-3 prostate): 2.76 µM and 4.33 µM
TGI (PC-3 prostate): 9.85 µM and > 10 µM
GI50 (RPMI-8226 leukemia): 1940 nM and 2750 nM
TGI (RPMI-8226 leukemia): 5.17 µM and > 10 µM
GI50 (ACHN renal): < 10 nM and 44.8 nM
TGI (ACHN renal): 2110 nM and > 10000 nM
GI50 (A498 renal): 357 nM and 681 nM
TGI (A498 renal): 2.51 µM and 5.15 µM
GI50 (UACC-257 melanoma): 3.42 µM and 9.15 µM
TGI (UACC-257 melanoma): 12.8 µM and > 10 µM
GI50 (UO-31 renal): 288 nM and 103 nM
